Reference: US5744161A, “Use of piperine as a bioavailability enhancer” (priority 1995, dated 1998)
Several values for one entry are separate records, joined by “and”; a condition that tells them apart may be missing. Identical values can stand only once. Entries after “also recorded” stand apart in the source; their conditions may differ. Like-named read-outs stand apart in the source and are kept apart here.

Legend:
[1] = 20 mg piperine daily for seven days, then 300 mg phenytoin; cited from earlier work
preweaned mice = conditions: cited from earlier work; for tumor development / carcinogenic potency compared with methylcholantrene: injected, preweaned mice; for effect on carcinogenic activity of safarole, tannic acid or methylcholantrene: fed to injected mice
V-79 lung fibroblasts = conditions: in vitro; cited from earlier work
[2] = tested on: mice treated with potent hepatotoxins tetra-hydroperoxide and carbon tetrachloride; conditions: cited from earlier work
[3] = tested on: mice treated with potent hepatotoxins and carbon tetrachloride; conditions: in vivo and in vitro experiments; cited from earlier work
cytochrome P-450 = conditions: cited from earlier work
rats [4] = conditions: cited from earlier work
[5] = tested on: rats injected with carageenin; conditions: cited from earlier work
Mice = conditions: cited from earlier work
rats [6] = conditions: 100 mg and 800 mg/kg intragastric; 10 mg/kg and 100 mg/kg intra-peritoneal; cited from earlier work
[7] = Margin of bioenhancing dose of piperine versus LD50 in rodents; set-up: species or system mice and rats; conditions: in vivo; maximum approx. 15 mg/person/day, no more than 20 mg/day; read-out: bioenhancing dose less than LD50 dose
Protocol: Black pepper contains approximately 5-9% piperine and is listed by the FDA as an herb which is generally recognized as safe (GRAS) for its intended use as spice, seasoning, or flavoring.
The dose of piperine considered as bioenhancing absorption of nutrients is considered 0.0004-0.15 mg of piperine/kg body weight.

Rat = conditions: cited from earlier work
[8] = tested on: benzo(a)pyrene activation; conditions: cited from earlier work
[9] = co-administered drugs; cited from earlier work
[10] = Blood levels of vitamin A (retinol) before and after 14 days supplementation; assay type: in vivo, human; conditions: 5 mg piperine with beta-carotene, in words
Protocol: Piperine known under the trademark Bioperine® consisting of 98% piperine has been evaluated in a nutrient bioavailability experiment.
A dose of 5 mg of piperine, and up to 15 mg, would most likely not interfere with the metabolism of a majority of drugs as previously discussed. […] Retinol, or vitamin A, is a product of metabolic conversion of beta-carotene, and its blood levels would likely be affected by enzymatic inhibition/stimulation with piperine.
Values of Vitamin A (retinol) before treatment and after
14 days supplementation with Bioperine ®

laboratory animals = conditions: broad range of doses; cited from earlier work
[11] = with piperine, cited from earlier work
[12] = cited from earlier work
[13] = in vivo and in vitro experiments
[14] = 5 to 20 times the average daily human intake
[15] = dose that significantly inhibited pregnancy

O=C1NC(=O)C(c2ccccc2)(c2ccccc2)N1 [phenytoin]
blood concentration of phenytoin [1]: increased blood levels; also recorded: rose more rapidly | elimination of phenytoin [1]: dramatically prolonged the elimination time; also recorded: significantly slower elimination | maximum concentration of phenytoin [1]: significantly higher concentrations | time to maximum concentration of phenytoin [1]: shorter time

Cc1ccc2cc3c(ccc4ccccc43)c3c2c1CC3 [methylcholantrene]
tumor development (preweaned mice): developed tumors

O=C(/C=C/C=C/c1ccc2c(c1)OCO2)N1CCCCC1 [piperine]
effect on benzo(a)pyrene cytotoxicity (V-79 lung fibroblasts): significantly enhanced benzo(a)pyrene cytotoxicity | hepatoprotective action [2, 13]: hepatoprotective action | lipid peroxidation [2, 13]: decrease in lipid peroxidation | reduced glutathione and total thiols in the liver ([2]; mouse, in vivo): prevented depletion of reduced glutathione and total thiols | enzymatic leakage of glutamate pyruvate transaminase and alkaline phosphatase [3]: reduced enzymatic leakage | decrease of cytochrome P-450 content of hepatic microsomes (cytochrome P-450; treatment of rats): approximately 20% | clinical symptoms (rats [4]; [14]): no clinical symptoms | food intake, growth pattern, organ weights (rats [4]; [14]): did not affect | blood chemistry (RBC, WBC, differential count, hemoglobin, serum proteins, albumins, globulins, glucose, cholesterol, aminotransferases, phosphatases) (rats [4]; treated vs untreated animals): no alterations | effect on carcinogenic activity of safarole, tannic acid or methylcholantrene (preweaned mice): did not modify their carcinogenic activity | acid phosphatase levels [5]: leveling off increased levels of acid phosphatase | lipid peroxide formation [5]: inhibiting lipid peroxide formation | anti-fertility activity (Mice; 5 mg/kg body weight/day): no anti-fertility activity | inhibition of pregnancy (Mice; 12.5 mg/kg body weight, twice a day, intraperitoneal or oral): inhibited significantly pregnancy in mice | effectiveness at pre- and post-implantation periods (Mice; 12.5 mg/kg body weight, twice a day): effective at both pre- and post-implantation periods | clinically noticeable toxicity (Mice; [15]): did not produce clinically noticeable toxicity | effect on estrogen cycle (Mice; [15]): did not interfere with the estrogen cycle | uterotropic effect (Mice; [15]): did not show uterotropic effect | serum sorbitol dehydrogenase (SDH), ALT, AST and isocitrate dehydrogenase (ICD) (rats [6]): None of the treatment regiments altered significantly | selectivity ratio [7]: ≤ 40000 | LD50 (Rat; Rat weanling): 585.0 mg/kg body weight | LD50 (Rat; Rat): 514.0 mg/kg body weight and 800.0 mg/kg body weight | effect on benzo(a)pyrene cytotoxicity ([8]; by lowering benzo(a)pyrene-oxide production): decreasing benzo(a)pyrene cytotoxicity | effect on benzo(a)pyrene activation (benzo(a)pyrene-oxide production) [8]: inhibit benzo(a)pyrene activation | bioavailability of a number of drugs [9]: increase the bioavailability, blood levels and efficacy of a number of drugs | blood levels of retinol / conversion of beta-carotene to vitamin A [10]: remained unchanged throughout the experiment; also recorded: does not elevate the conversion of beta-carotene to vitamin A | general growth pattern, body to organ weight ratio, clinical symptomatology and blood chemistry (laboratory animals): does not cause any abnormality

C=C(C)[C@H]1CC=C(C)CC1 [d-limonene]
effect on carcinogenic activity of safarole, tannic acid or methylcholantrene (preweaned mice): reduced their carcinogenic activity

CC(C)NCC(O)COc1cccc2ccccc12 (stereo not shown) [propranolol]
elimination rate of propranolol ([11]; 3 mg dose): did not affect the elimination rate; also recorded: without slowing down the drug elimination rate | maximum blood concentration increase of propranolol ([11]; 3 mg dose): two fold; also recorded: doubling its blood levels | plasma / blood levels of propranolol [11]: significant increase in plasma levels; also recorded: significant increase in blood levels

C=CCc1ccc2c(c1)OCO2 [safarole]
increase of cytochrome P-450 content of hepatic microsomes (cytochrome P-450; pretreatment of rats): about 50% | carcinogenic potency compared with methylcholantrene (preweaned mice): weak carcinogens | tumor development (preweaned mice): developed tumors

O=C(OC[C@H]1O[C@@H](OC(=O)c2cc(O)c(O)c(OC(=O)c3cc(O)c(O)c(O)c3)c2)[C@H](OC(=O)c2cc(O)c(O)c(OC(=O)c3cc(O)c(O)c(O)c3)c2)[C@@H](OC(=O)c2cc(O)c(O)c(OC(=O)c3cc(O)c(O)c(O)c3)c2)[C@@H]1OC(=O)c1cc(O)c(O)c(OC(=O)c2cc(O)c(O)c(O)c2)c1)c1cc(O)c(O)c(OC(=O)c2cc(O)c(O)c(O)c2)c1 [tannic acid]
carcinogenic potency compared with methylcholantrene (preweaned mice): weak carcinogens | tumor development (preweaned mice): developed tumors

Cn1c(=O)c2[nH]cnc2n(C)c1=O [theophylline]
maximum concentration of theophylline, increase ([12]; 20 mg piperine daily for seven days, then 150 mg theophylline): 1.5 times higher | blood levels of theophylline ([12]; 20 mg piperine for seven days prior): increased blood levels
